From patent US9017737B2, “Use of cannabinoids in combination with an anti-psychotic medicament” (priority 2008, dated 2015)

Key:
[1] = tested on: rat isolated aortae; assay: In vitro vascular studies by wire myography; details: for Time-dependent relaxation of the rat aorta: 2 h (120 min), pre-contracted aortae
[2] = tested on: 3T3L1 cells; assay: Induction of adipocyte differentiation (Oil Red O staining); assay type: cell-based; details: treated for 8 days
[3] = tested on: small resistance mesenteric vessels and aorta; assay: Chronic treatment of rats with CBD: vascular responses in isolated arteries; assay type: in vivo, rat; details: animals treated for 2 weeks
[4] = tested on: rat/Wistar; assay: Aripiprazole-induced ptosis; assay type: in vivo; details: ip, 1 hour after aripiprazole po
Method: (§1) Animals were subjected to a protocol as illustrated in FIG. 5.
(§2) Rats were made to fast from 6 PM on the day before the experiment until sacrifice. Rats were weighed and orally (PO) administered aripiprazole. […] For measurement of catalepsy, the observations were performed three times at each observation time point. The animals were forced to hang with their right forepaw on the upper edge of a steel can (diameter: 6 cm, height: 10 cm). When the animals remained in the unnatural vertical position for 30 seconds or longer, they were judged to be positive responders for catalepsy.
The measurement of ptosis was performed as follows. Each animal was individually taken from the home cage and put on the experimenter's hand to observe the eyes. The ptosis score was determined for both eyes as described below, and the scores for the two eyes were added to obtain the total score (maximum score, 8) • 0: Normal • 1: Mild ptosis (upper eyelid covered ¼ of the eye) • 2: Moderate ptosis (upper eyelid covered ½ of the eye) • 3: Severe ptosis (upper eyelid covered ¾ of the eye) • 4: Complete ptosis (upper eyelid covered the entire eye)

[5] = tested on: rat/Wistar; assay: Aripiprazole-induced catalepsy; assay type: in vivo; details: ip, 1 hour after aripiprazole po
Method: as §1, §2

[6] = target: T1, PPARγ (Homo sapiens, UniProt P37231); assay: Transcriptional transactivation (luciferase reporter gene) assay; assay type: cell-based; details: any concentration tested; in words
T1 construct: expressed in transfected cells
T1 sequence (P37231 1-505): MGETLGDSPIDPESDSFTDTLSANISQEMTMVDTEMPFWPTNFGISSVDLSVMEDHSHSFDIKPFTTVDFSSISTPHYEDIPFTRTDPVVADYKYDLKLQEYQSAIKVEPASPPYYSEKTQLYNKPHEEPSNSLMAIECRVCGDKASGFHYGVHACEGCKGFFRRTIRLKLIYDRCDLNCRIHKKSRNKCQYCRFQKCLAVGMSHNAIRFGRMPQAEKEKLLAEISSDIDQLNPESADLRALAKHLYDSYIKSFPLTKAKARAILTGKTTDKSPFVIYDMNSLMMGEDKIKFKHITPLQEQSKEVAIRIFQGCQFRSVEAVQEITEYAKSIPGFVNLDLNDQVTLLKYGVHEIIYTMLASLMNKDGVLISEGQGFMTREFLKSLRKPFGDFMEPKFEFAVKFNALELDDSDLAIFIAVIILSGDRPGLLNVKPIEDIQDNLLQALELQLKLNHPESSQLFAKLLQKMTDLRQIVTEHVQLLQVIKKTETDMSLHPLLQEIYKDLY
T1 sequence (P19793 1-462 partner): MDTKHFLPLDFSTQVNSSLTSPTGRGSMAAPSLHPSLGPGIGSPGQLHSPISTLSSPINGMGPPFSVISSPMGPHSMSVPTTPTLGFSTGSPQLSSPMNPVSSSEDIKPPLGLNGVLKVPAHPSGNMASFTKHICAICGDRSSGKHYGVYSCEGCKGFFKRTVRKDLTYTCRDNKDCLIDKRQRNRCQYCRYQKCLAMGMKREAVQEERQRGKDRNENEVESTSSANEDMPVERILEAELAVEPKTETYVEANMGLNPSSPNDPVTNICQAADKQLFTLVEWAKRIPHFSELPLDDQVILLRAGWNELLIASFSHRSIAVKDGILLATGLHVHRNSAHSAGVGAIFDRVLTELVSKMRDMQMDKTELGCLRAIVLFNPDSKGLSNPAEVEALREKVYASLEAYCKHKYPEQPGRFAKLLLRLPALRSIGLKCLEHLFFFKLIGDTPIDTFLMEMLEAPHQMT
Method: In vitro vascular studies were carried out in rat isolated aortae by wire myography. PPARγ activation was investigated using reporter gene assays, a PPARγ competition-binding assay and an adipogenesis assay.

C=C(C)[C@@H]1CCC(C)=C[C@H]1c1c(O)cc(CCCCC)cc1O [CBD, cannabidiol]
Time-dependent relaxation of the rat aorta ([1]; 10 μM): 69.7±4.0 % relaxation | Residual relaxation (vasorelaxant effect minus the vasorelaxant effect of vehicle and time) ([1]; 10 μM, after 2 h): 50.1±3.3 % relaxation | Basal tension over time ([1]; 2 h): -0.03 ± 0.01 g | Time-dependent vascular responses with the CB1 receptor antagonist AM251 ([1]; AM251 1 μM): did not significantly affect | Residual vasorelaxant effect in the presence of the PPARγ receptor antagonist GW9662 ([1]; GW9662 1 μM, after 1 h of incubation): significantly reduced | Residual vasorelaxant effect in the presence of the nitric oxide synthase inhibitor L-NAME ([1]; L-NAME 300 μM, vs control conditions): not different | Vascular response over time after pre-treating arteries with PTX or capsaicin ([1]; PTX 200 ng ml−1, 2 h or capsaicin 10 μM, 1 h): no effect | Residual vasorelaxant effects with the CB2 receptor antagonist SR144528 ([1]; SR144528 1 μM, between 45 min to 90 min): significantly inhibited | Potency and maximal contractile response to the re-introduction of calcium ([1]; calcium free, high potassium Krebs-Hensleit solution, 1 μM to 30 μM, concentration-dependent): significantly reduced | Vasorelaxant effect in arteries contracted with a high potassium buffer ([1]; compared with control): no difference | Vasorelaxant effect in vessels where tone was induced with U46619 in calcium free buffer ([1]; compared with control): significantly blunted | Vasorelaxant effect in endothelium-denuded and control aortae ([1]; endothelium-denuded): similar | Differentiation of 3T3 L1 cells to adipocytes (fat droplet accumulation, Oil Red O) [2]: signs of fat droplet accumulation were apparent at all concentrations tested | Maximal response to methoxamine in the aorta [3]: 1.63±0.21 g increase tension | Potency of acetylcholine (pEC50) in the aorta [3]: 5.37±0.40 | Potency of methoxamine (pEC50), small resistance mesenteric vessels [3]: 5.79±0.10 | Aripiprazole-induced ptosis in rats ([4]; 120 mg/kg): significantly decreased | Aripiprazole-induced catalepsy in rats ([5]; 120 mg/kg): significantly decreased

CCCc1cc(O)c2c(c1)OC(C)(C)[C@@H]1CCC(C)=C[C@@H]21 [THCV, tetrahydrocannabivarin]
Time-dependent relaxation of the rat aorta ([1]; 10 μM): 28.7±4.6 % relaxation | Effect on tone in pre-contracted aortae ([1]; 10 μM, in words): no effect on tone until after 105 minutes | PPARγ transcriptional activity [6]: no effect | Aripiprazole-induced ptosis in rats ([4]; 60 mg/kg): significantly decreased | Aripiprazole-induced catalepsy in rats ([5]; 60 mg/kg): significantly decreased

COc1ccc(CCN(C)CCCC(C#N)(c2ccc(OC)c(OC)c2)C(C)C)cc1OC (stereo not drawn) [verapamil, reference compound]
Vasorelaxation of pre-constricted vessels ([1]; more rapid onset than CBD): significant vasorelaxation
